Results on 1 compound are retold here after patent US9587225B2, “Low-molecular-compound for improving production, maintenance and proliferation of pluripotent stem cells, composition comprising the same, and culture method” (KOREA RESEARCH INSTITUTE OF BIOSCIENCE AND BIOTECHNOLOGY, priority 2012, dated 2017).

Data set [1] has as its system human skin fibroblasts. Kind of data set: SA-β-gal senescence assay during reprogramming. The settings on record: 10 days after induction of reprogramming, compared to untreated control (OSKM alone) (FIG. 17). Type of data set: cell-based.
The target of data set [2] is T1, DNA methyl transferase 1 (DNMT1) (Homo sapiens, UniProt P26358).
T1 construct: endogenous in cells; host or cells: human skin (foreskin) fibroblasts (hFF, ATCC CRL-2097) transduced with OSKM retrovirus
Description: DNMT1 activity during reprogramming. Type of data set: cell-based. The settings on record: 10 days after induction of reprogramming, compared to untreated control (OSKM alone) (FIG. 20). The source says: For comparison, the activity of DNMT1 in the absence of RSC-133 was set at 100%.
RSC133 regulates the activities of epigenetic regulators such as DNA methyltransferase (DNMT) and histone deacetylase (HDAC). At 10 days after induction of reprogramming by RSC133, the activity of DNMT1 was reduced by about 38% compared to that in an untreated control group (OSKM alone) (FIG. 20). Epigenetic chromatin remolding by DNA methylation and/or histone modification plays an important in a wide range of transcriptional regulation in the reprogramming process. […] The increased level of H3K9 histone acetylation (ace) is particularly associated with the restoration of pluripotency and reprogramming ability. It is known that DNA methylation by DNMT1 has a close connection with the change in chromatin status caused by HDAC activity.

In another data set the test system is total HDAC enzymes. Description: Activity of total HDAC enzymes during reprogramming. Type of data set: cell-based, human. The conditions noted are these: during reprogramming (FIG. 19 left). The protocol:
The values shown on the graph are mean values. The data are expressed as mean±SD (n=3) (*P<0.01, **P<0.005, by t-test).
Next, whether the above-described results were results of the inhibition of HDAC enzyme by RSC-133 during reprogramming of human skin fibroblasts was examined. […] According to the experimental method shown in FIG. 21, the expression levels of HDAC-family proteins were measured, and as a result, it could be seen that the expression level of HDAC1 in the test group treated with RSC-133 was inhibited at 10 days after treatment with RSC-133 compared to that of the control group (the light panel of FIG. 19 and FIG. 21). It was reported that HDAC1 can occupy the Oct4, Sox2, Klf4 and c-Myc gene loci in embryonic stem cells and that the expression of pluripotency-specific marker genes in HDAC1-deleted embryonic stem cells is increased. Thus, it is believed that RSC-133 can inhibit the function of HDAC1 and increase the H3K9ace level to stimulate the reprogramming process.

Data set [3] deals with human skin fibroblasts. Description: MTT cytotoxicity assay. Type of data set: cell-based. The conditions noted are these: concentration up to 50 μM, 72 hours after treatment (FIG. 9). The protocol:
FIG. 9 is a graph showing the results of analyzing the effect of RSC-133 on the cytotoxicity of human skin fibroblasts. At 72 hours after treatment with various concentrations of RSC-133, cytotoxicity was measured by MTT (3-(4,5-dimethylthiazol-2-yl)-2,5-diphenyltetrazolium bromide (yellow tetrazole) assays. The values shown on the graph are mean values. The data are expressed as mean±SD (n=3).
For orientation: Tetrazolium assays rely on reduction of a dye to a coloured formazan, in cell work by metabolically active cells.

The next data set has as its system H3K9ace. Kind of data set: H3K9 acetylation during reprogramming (immunocytochemistry, Western blot). The data set is classed as cell-based, human. The protocol: The left panel is a set of photographs showing the results obtained by inducing the reprogramming of human skin fibroblasts, culturing the cells for 10 days in the presence or absence of RSC-133, and then analyzing the cells by immunocytochemistry using monoclonal antibodies for H3K9ace and an undifferentiation marker (Nanog) (scale bar=200 μm). […] H3 protein was used as an internal control.
For immunostaining, cells were seeded on Matrigel-coated 4-well Lab-Tek chamber slides (Nunc, Naperville, Ill.) and cultured for 5 days under the indicated conditions. The cells were fixed in 4% paraformaldehyde at room temperature for 15 minutes, and then washed with PBS/0.2% BSA. Next, the cells were passed through PBS/0.2% BSA/0.1% Triton X-100 for 15 minutes, and then incubated with 4% normal donkey serum (Molecular Probes, Eugene, Oreg., USA) in PBS/0.2% BSA at room temperature for 1 hour. The cells were diluted with PBS/0.2% BSA, and then reacted with primary antibody at 4° C. for 2 hours. After washing, the cells were reacted with FITC- or Alexa594-conjugated secondary antibody (Invitrogen) in PBS/0.2% BSA at room temperature for 1 hour. The cells were counter-stained with 10 μg/ml DAPI.
Most of various low-molecular-weight compounds known to be involved in the reprogramming process are involved genome methylation patterns, histone acetylation patterns or major signaling mechanisms. […]
A general note: In western blotting, separated proteins are transferred to a membrane and probed.

SMILES strings stand for the structures.

T1 sequence (P26358 whole entry): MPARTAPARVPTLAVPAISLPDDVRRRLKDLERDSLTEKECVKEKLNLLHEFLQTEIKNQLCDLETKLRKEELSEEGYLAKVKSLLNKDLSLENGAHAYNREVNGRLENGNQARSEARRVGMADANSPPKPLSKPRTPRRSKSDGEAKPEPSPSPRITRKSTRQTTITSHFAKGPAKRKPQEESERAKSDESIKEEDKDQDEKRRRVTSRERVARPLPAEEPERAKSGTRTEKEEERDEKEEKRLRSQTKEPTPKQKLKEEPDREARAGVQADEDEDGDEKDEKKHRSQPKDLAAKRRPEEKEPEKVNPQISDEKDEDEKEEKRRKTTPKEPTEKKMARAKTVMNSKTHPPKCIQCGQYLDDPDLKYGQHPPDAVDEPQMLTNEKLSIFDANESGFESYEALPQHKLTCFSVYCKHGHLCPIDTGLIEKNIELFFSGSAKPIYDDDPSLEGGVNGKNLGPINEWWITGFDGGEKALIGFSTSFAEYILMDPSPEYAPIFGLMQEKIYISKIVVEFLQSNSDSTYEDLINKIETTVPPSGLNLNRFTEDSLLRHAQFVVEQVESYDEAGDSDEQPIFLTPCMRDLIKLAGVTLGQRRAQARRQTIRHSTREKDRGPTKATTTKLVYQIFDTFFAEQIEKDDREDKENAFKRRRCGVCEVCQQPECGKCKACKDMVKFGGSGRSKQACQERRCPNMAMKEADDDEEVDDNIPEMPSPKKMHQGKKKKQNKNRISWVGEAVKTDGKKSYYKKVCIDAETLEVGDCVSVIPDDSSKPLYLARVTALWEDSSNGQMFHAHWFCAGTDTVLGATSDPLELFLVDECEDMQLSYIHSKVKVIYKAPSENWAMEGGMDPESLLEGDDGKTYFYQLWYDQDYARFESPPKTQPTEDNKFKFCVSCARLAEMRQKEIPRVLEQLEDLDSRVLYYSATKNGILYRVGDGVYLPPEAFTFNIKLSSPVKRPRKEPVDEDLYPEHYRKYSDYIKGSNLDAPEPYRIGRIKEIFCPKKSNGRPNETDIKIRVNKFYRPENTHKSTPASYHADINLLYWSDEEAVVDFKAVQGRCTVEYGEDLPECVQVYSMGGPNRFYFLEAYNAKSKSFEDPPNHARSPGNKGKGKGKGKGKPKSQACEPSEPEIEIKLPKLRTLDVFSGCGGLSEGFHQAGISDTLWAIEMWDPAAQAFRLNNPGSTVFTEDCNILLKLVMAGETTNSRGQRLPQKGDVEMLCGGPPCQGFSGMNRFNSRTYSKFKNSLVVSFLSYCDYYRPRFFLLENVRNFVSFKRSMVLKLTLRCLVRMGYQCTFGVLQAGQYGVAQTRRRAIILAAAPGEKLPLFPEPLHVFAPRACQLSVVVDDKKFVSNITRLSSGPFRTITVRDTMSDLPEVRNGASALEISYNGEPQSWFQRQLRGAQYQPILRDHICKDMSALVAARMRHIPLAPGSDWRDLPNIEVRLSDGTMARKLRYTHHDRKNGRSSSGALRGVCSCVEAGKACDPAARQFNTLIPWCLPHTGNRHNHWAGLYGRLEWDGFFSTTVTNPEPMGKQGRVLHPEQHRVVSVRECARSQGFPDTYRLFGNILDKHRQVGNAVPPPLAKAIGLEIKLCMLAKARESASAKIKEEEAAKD

For the compound `NC(=O)c1cccc(NC(=O)/C=C/c2c[nH]c3ccccc23)c1` [RSC-133, 3-[3-(1H-indol-3-yl)-acrylamido]-benzamide], the “decrease of the ratio of SA-β-gal-positive cells” value with human skin fibroblasts [1] was determined as 37.23%. The “reduction of the activity of DNMT1” value in data set [2] is recorded as “about 38%”. For the same compound, the “activity of total HDAC enzymes” value in the data set on total HDAC enzymes was “slightly inhibited”. In the data set with human skin fibroblasts [3], the “cytotoxicity (MTT)” value is recorded as “did not induce cytotoxicity”. The “H3K9ace level by Western blot” value with H3K9ace (H3 as internal control (FIG. 18 right)) is recorded as “The same results were also obtained”. Moreover, the “ratio of undifferentiated cells having a high H3K9ace level (immunocytochemistry)” value in the data set with H3K9ace (cultured 10 days in presence or absence of RSC-133 (FIG. 18 left)) was “higher in the test group treated with RSC-133 than in the control group”.
